According to patent US8642788B2, “Activators of executioner procaspases 3, 6 and 7” (The Regents of the University of California, priority 2008, dated 2014):
Read-outs that look alike come from different tables or passages of the source.

Columns and labels:
Assay type in all cases: biochemical
procaspase-6 = target: T1, procaspase-6 (Homo sapiens, UniProt P55212); test: Executioner procaspase-6 activation assay (Ac-VEID-AFC fluorogenic substrate); conditions: incubation with compound for 5 h at 37° C.; 100 nM procaspase
T1 sequence (P55212 1-293): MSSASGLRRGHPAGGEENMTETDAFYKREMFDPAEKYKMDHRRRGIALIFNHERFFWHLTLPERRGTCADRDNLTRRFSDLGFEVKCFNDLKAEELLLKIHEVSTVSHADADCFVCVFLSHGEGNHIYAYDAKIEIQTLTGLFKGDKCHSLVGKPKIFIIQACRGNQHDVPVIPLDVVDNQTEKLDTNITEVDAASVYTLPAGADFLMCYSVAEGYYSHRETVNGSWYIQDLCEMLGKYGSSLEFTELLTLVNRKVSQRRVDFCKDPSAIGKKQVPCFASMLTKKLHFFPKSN
Procedure: (§1) The executioner procaspase-3, -6 and -7 activation assay protocol involves incubating the target protein at the physiologically-relevant concentration of 100 nM with activating compounds (ranging from 100 nM to 100 uM) in a total volume of 50 μL consisting of a reaction buffer of 50 mM HEPES, pH 7.4, 50 mM KCl, 1 mM DTT and 0.01% Triton-X100 (to reduce false positive hits due to compound aggregation). The procaspase/small molecule incubations are then agitated at 37° C. and assayed at various time points by addition of the fluorogenic peptide substrate 7-Amino-4-trifluoromethylcoumarin-DEVD (Ac-DEVD-AFC) (procaspases-3, -7) or Ac-VEID-AFC (procaspase-6) to a final concentration of 25 μM and analyzed by a kinetic 30 minute assay (excitation 365 nm and emission 495 nm). The final concentration of DMSO in each well is 3% and has no effect on enzyme stability or activity. […] All components of the assay including protein, substrate and inhibitor are stored as frozen aliquots and thawed immediately prior to the assay.
(§2) Tables 1 and 2. Procaspase activation as a result of incubation with compound for 5 h at 37° C. (+++ EC50˜0.5-10 μM; ++ EC50˜10-50 μM; + EC50˜50-200 μM; -no activation observed; ND not determined).

procaspase-7 = target: T2, procaspase-7 (Homo sapiens, UniProt P55210); test: Executioner procaspase-7 activation assay (Ac-DEVD-AFC fluorogenic substrate); conditions: incubation with compound for 5 h at 37° C.; 100 nM procaspase
T2 construct: His6 (C); made in house; host or cells: E. coli BL21(DE3)RP, pET-21b
T2 sequence (P55210 1-303): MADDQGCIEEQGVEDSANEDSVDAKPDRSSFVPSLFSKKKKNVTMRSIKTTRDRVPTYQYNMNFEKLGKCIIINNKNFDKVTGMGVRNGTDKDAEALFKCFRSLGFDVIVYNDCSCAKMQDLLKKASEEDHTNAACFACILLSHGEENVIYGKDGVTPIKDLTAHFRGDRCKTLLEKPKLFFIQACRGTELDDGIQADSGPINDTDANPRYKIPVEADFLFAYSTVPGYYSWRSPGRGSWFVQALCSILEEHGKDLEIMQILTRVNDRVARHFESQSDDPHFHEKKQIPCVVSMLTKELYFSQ
Procedure: as §1, §2

procaspase-3 = target: T3, procaspase-3 (Homo sapiens, UniProt P42574); test: Executioner procaspase-3 activation assay (Ac-DEVD-AFC fluorogenic substrate)
T3 construct: His6 (C); made in house; host or cells: E. coli BL21(DE3)RP, pET-23b
T3 sequence (P42574 1-277): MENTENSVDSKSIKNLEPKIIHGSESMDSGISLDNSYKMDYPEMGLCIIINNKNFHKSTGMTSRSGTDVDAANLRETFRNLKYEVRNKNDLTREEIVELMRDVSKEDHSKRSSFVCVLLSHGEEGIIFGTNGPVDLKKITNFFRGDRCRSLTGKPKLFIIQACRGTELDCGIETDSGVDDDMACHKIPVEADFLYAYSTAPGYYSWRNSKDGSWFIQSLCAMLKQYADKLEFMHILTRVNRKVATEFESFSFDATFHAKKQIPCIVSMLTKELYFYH
Procedure: The executioner procaspase-3, -6 and -7 activation assay protocol involves incubating the target protein at the physiologically-relevant concentration of 100 nM with activating compounds (ranging from 100 nM to 100 uM) in a total volume of 50 μL consisting of a reaction buffer of 50 mM HEPES, pH 7.4, 50 mM KCl, 1 mM DTT and 0.01% Triton-X100 (to reduce false positive hits due to compound aggregation). […] All components of the assay including protein, substrate and inhibitor are stored as frozen aliquots and thawed immediately prior to the assay.

[1] = incubation with compound for 5 h at 37° C., 100 nM procaspase, read-out: Procaspase Activation 3

EC50 (procaspase-6) [µM] | EC50 (procaspase-7) [µM] | EC50 (procaspase-3; [1]) [µM] | SMILES | EC50 (procaspase-3) [µM]
> 100 | > 100 | > 100 | COc1ncc(-c2cccc(NC(=O)c3cc4cccc(O)c4oc3=O)c2)c(OC)n1 [compound 127, 8-Hydroxy-2-oxo-2H-chromene-3-carboxylic acid [3-(2,4-dimethoxy-pyrimidin-5-yl)-phenyl]-amide] | –
> 100 | > 100 | > 100 | N#Cc1ccccc1-c1cccc(NC(=O)c2cc3cccc(OC(F)(F)F)c3oc2=O)c1 [compound 91, 8-Trifluoromethoxy-2-oxo-2H-chromene-3-carboxylic acid (2′-cyano-biphenyl-3-yl)-amide] | –
> 100 | > 100 | > 100 | CC(=O)Nc1ccccc1-c1cccc(NC(=O)c2cc3cccc(OC(F)(F)F)c3oc2=O)c1 [compound 97, 8-Trifluoromethoxy-2-oxo-2H-chromene-3-carboxylic acid (2′-acetylamino-biphenyl-3-yl)-amide] | –
> 100 | > 100 | > 100 | O=C(Nc1cccc(-c2cnn(Cc3ccccc3)c2)c1)c1cc2cccc(O)c2oc1=O [compound 169, 8-Hydroxy-2-oxo-2H-chromene-3-carboxylic acid [3-(1-benzyl-1H-pyrazol-4-yl)-phenyl]-amide] | –
> 100 | > 100 | > 100 | COc1cccc2cc(C(=O)Nc3cccc(-c4ccc5ccccc5c4)c3)c(=O)oc12 [compound 81, 8-Methoxy-2-oxo-2H-chromene-3-carboxylic acid (3-Naphthalen-2-yl-phenyl)-amide] | –
> 100 | > 100 | > 100 | CC(C)(C)OC(=O)n1c(-c2cccc(NC(=O)c3cc4cccc(O)c4oc3=O)c2)cc2ccccc21 [compound 175, 2-{3-[(8-Hydroxy-2-oxo-2H-chromene-3-carbonyl)-amino]-phenyl}-indole-1-carboxylic acid tert-butyl ester] | –
> 100 | > 100 | > 100 | CC(C)(C)OC(=O)n1cccc1-c1cccc(NC(=O)c2cc3cccc(O)c3oc2=O)c1 [compound 173, 2-{3-[(8-Hydroxy-2-oxo-2H-chromene-3-carbonyl)-amino]-phenyl}-pyrrole-1-carboxylic acid tert-butyl ester] | –
> 100 | > 100 | > 100 | COc1cccc2cc(C(=O)Nc3cccc(-c4ccc(C#N)c(F)c4)c3)c(=O)oc12 [compound 144, 8-Methoxy-2-oxo-2H-chromene-3-carboxylic acid (4′-cyano-3′-fluoro-biphenyl-3-yl)-amide] | –
> 100 | > 100 | > 100 | COc1cccc2cc(C(=O)Nc3cccc(-c4ccnn4C)c3)c(=O)oc12 [compound 152, 8-Methoxy-2-oxo-2H-chromene-3-carboxylic acid [3-(2-methyl-2H-pyrazol-3-yl)-phenyl]-amide] | –

Further lines, the molecule ahead of its results:

SMILES | EC50 (procaspase-6) [µM] | EC50 (procaspase-7) [µM] | EC50 (procaspase-3; [1]) [µM] | EC50 (procaspase-3) [µM]
CCOc1ccc(-c2cccc(NC(=O)c3cc4cccc(OC(F)(F)F)c4oc3=O)c2)cc1C [compound 67, 8-Trifluoromethoxy-2-oxo-2H-chromene-3-carboxylic acid (4′-ethoxy-3′-methyl-biphenyl-3-yl)-amide] | > 100 | > 100 | > 100 | –
COc1ccc2cc(-c3cccc(NC(=O)c4cc5cccc(O)c5oc4=O)c3)ccc2c1 [compound 77, 8-Hydroxy-2-oxo-2H-chromene-3-carboxylic acid [3-(6-methoxy-naphthalen-2-yl)-phenyl]-amide] | > 100 | 0.5 to 10 | > 100 | –
COc1cccc2cc(C(=O)Nc3cccc(-c4ccc5[nH]ccc5c4)c3)c(=O)oc12 [compound 93, 8-Methoxy-2-oxo-2H-chromene-3-carboxylic acid (3-(1H-Indol-5-yl)-phenyl)-amide] | > 100 | > 100 | – | > 100
O=C(Nc1cccc(-c2ccc(Oc3ccccc3)cc2)c1)c1cc2cccc(OC(F)(F)F)c2oc1=O [compound 61, 8-Trifluoromethoxy-2-oxo-2H-chromene-3-carboxylic acid (4′-phenoxy-biphenyl-3-yl)-amide] | > 100 | > 100 | > 100 | –
COc1ccc2cc(-c3cccc(NC(=O)c4cc5cccc(OC(F)(F)F)c5oc4=O)c3)ccc2c1 [compound 79, 8-Trifluoromethoxy-2-oxo-2H-chromene-3-carboxylic acid [3-(6-methoxy-naphthalen-2-yl)-phenyl]-amide] | > 100 | > 100 | > 100 | –
CCOc1ccc(-c2cccc(NC(=O)c3cc4cccc(OC(F)(F)F)c4oc3=O)c2)cc1 [compound 70, 8-Trifluoromethoxy-2-oxo-2H-chromene-3-carboxylic acid (4′-ethoxy-biphenyl-3-yl)-amide] | > 100 | > 100 | > 100 | –
COc1cccc2cc(C(=O)Nc3cccc(-c4cccnc4)c3)c(=O)oc12 [compound 18, 8-Methoxy-2-oxo-2H-chromene-3-carboxylic acid (3-pyridin-3-yl-phenyl)-amide] | > 100 | > 100 | > 100 | –
O=C(Nc1cccc(-c2ccc3c(c2)CCO3)c1)c1cc2cccc(O)c2oc1=O [compound 74, 8-Hydroxy-2-oxo-2H-chromene-3-carboxylic acid [3-(2,3-Dihydro-benzofuran-5-yl)-phenyl]-amide] | > 100 | 10 to 50 | > 100 | –
O=C(Nc1cccc(-c2ccc3c(c2)CCO3)c1)c1cc2cccc(OC(F)(F)F)c2oc1=O [compound 76, 8-Trifluoromethoxy-2-oxo-2H-chromene-3-carboxylic acid [3-(2,3-dihydro-benzofuran-5-yl)-phenyl]-amide] | > 100 | > 100 | > 100 | –
O=C(Nc1cccc(-c2cccnc2)c1)c1cc2cccc(O)c2oc1=O [compound 17, 8-Hydroxy-2-oxo-2H-chromene-3-carboxylic acid (3-pyridin-3-yl-phenyl)-amide] | > 100 | > 100 | > 100 | –
CCOc1ncccc1-c1cccc(NC(=O)c2cc3cccc(O)c3oc2=O)c1 [compound 41, 8-Hydroxy-2-oxo-2H-chromene-3-carboxylic acid [3-(2-ethoxy-pyridin-3-yl)-phenyl]-amide] | 50 to 200 | > 100 | 10 to 50 | –
COc1ccc(OC)c(-c2cccc(NC(=O)c3cc4cccc(O)c4oc3=O)c2)c1 [compound 56, 8-Hydroxy-2-oxo-2H-chromene-3-carboxylic acid (2′,5′-dimethoxy-biphenyl-3-yl)-amide] | > 100 | > 100 | > 100 | –
COc1cccc2cc(C(=O)Nc3cccc(-c4ccc5c(c4)CCO5)c3)c(=O)oc12 [compound 75, 8-Methoxy-2-oxo-2H-chromene-3-carboxylic acid [3-(2,3-dihydro-benzofuran-5-yl)-phenyl]-amide] | > 100 | > 100 | > 100 | –
COc1ccc(-c2cccc(NC(=O)c3cc4cccc(OC(F)(F)F)c4oc3=O)c2)cc1 [compound 46, 8-Trifluoromethoxy-2-oxo-2H-chromene-3-carboxylic acid (4′-Methoxy-biphenyl-3-yl)-amide] | > 100 | > 100 | > 100 | –
